The text below walks through data of patent US20230321008A1, “INHIBITORS OF ACID SPHINGOMYELINASE FOR PREVENTING AND TREATING THE COVID-19 DISEASE” (priority 2020, published 2023).

“Also recorded” adds a separate entry of the source.

The subject of one assay is severe COVID-19. Nature of the assay: Example 2: multicenter observational retrospective cohort study, FIASMA medication use at baseline and intubation or death in patients hospitalized for severe COVID-19. The format is in vivo, human. The conditions noted are these: vs no FIASMA medication. An excerpt: We included all adults aged 18 years or over who have been hospitalized in these medical centers for severe COVID-19. COVID-19 was ascertained by a positive reverse-transcriptase-polymerase-chain-reaction (RT-PCR) test from analysis of nasopharyngeal or oropharyngeal swab specimens. Severe COVID-19 at admission was defined as having at least one of the following criteria: respiratory rate > 24 breaths/min or < 12 breaths/min, resting peripheral capillary oxygen saturation in ambient air < 90%, temperature > 40° C., systolic blood pressure < 100 mm Hg or high lactate levels. AP-HP clinical Data Warehouse initiatives ensure patient information and informed consent regarding the different approved studies through a transparency portal in accordance with European Regulation on data protection and authorization n°1980120 from National Commission for Information Technology and Civil Liberties (CNIL).
We used data from the AP-HP Health Data Warehouse (‘Entrepôt de Données de Santé (EDS)’). This warehouse contains all available clinical data on all inpatient visits for COVID-19 to any Greater Paris University hospital. The data included patient demographic characteristics, vital signs, laboratory test and RT-PCR test results, medication administration data, medication lists during current and past hospitalizations in AP-HP hospitals, current diagnoses, discharge disposition, and death certificates.
We obtained the following data for each patient at the time of the hospitalization: sex; age, which was categorized into 4 classes based on the OpenSAFELY study results (i.e. 18-50, 51-70, 71-80, 81+); hospital, which was categorized into 4 classes following the administrative clustering of AP-HP hospitals in Paris and its suburbs based on their geographical location (i.e., AP-HP Centre - Paris University, Henri Mondor University Hospitals and at home hospitalization; AP-HP Nord and Hôpitaux Universitaires Paris Seine-Saint-Denis; AP-HP Paris Saclay University; and AP-HP Sorbonne University); obesity, which was defined as having a body mass index higher than 30 kg/m^2 or an International Statistical Classification of Diseases and Related Health Problems (ICD-10) diagnosis code for obesity (E66.0, E66.1, E66.2, E66.8, E66.9); self-reported current smoking status; and any medication prescribed according to compassionate use or as part of a clinical trial (e.g. hydroxychloroquine, azithromycin, remdesivir, tocilizumab, sarilumab, or dexamethasone). To take into account possible confounding by indication bias for FIASMA medication, we recorded whether patients had any current diagnosis, based on ICD-10 diagnosis codes, for neoplasms and diseases of the blood (C00-D89); mental disorders (F01-F99); diseases of the nervous system (G00-G99); cardiovascular disorders (I00-I99); respiratory disorders (J00-J99); digestive disorders (K00-K95); dermatological disorders (L00-L99); diseases of the musculoskeletal system (M00-M99); diseases of the genitourinary system (N00-N99); endocrine disorders (E00-E89); and eye-ear-nose-throat disorders (H00-H95).
All medical notes and prescriptions are computerized in Greater Paris University hospitals. Medications including their dosage, frequency, date, and mode of administration were identified from medication administration data or scanned handwritten medical prescriptions, through two deep learning models based on BERT contextual embeddings, one for the medications and another for their mode of administration. The model was trained on the APmed corpus, a previously annotated dataset for this task. Extracted medications names were then normalized to the Anatomical Therapeutic Chemical (ATC) terminology using approximate string matching.
FIASMA medication use was defined as receiving at least one FIASMA medication at study baseline, i.e. within the first 24 hours of hospital admission, and before the end of the index hospitalization, intubation or death.

The target of another assay is Sigma-1 receptors (S1R) (Homo sapiens, UniProt Q99720). To be noted: cited from earlier work.
Assay [1] deals with T1, acid sphingomyelinase (ASM) (Homo sapiens, UniProt P17405).
T1 sequence (P17405 47-631): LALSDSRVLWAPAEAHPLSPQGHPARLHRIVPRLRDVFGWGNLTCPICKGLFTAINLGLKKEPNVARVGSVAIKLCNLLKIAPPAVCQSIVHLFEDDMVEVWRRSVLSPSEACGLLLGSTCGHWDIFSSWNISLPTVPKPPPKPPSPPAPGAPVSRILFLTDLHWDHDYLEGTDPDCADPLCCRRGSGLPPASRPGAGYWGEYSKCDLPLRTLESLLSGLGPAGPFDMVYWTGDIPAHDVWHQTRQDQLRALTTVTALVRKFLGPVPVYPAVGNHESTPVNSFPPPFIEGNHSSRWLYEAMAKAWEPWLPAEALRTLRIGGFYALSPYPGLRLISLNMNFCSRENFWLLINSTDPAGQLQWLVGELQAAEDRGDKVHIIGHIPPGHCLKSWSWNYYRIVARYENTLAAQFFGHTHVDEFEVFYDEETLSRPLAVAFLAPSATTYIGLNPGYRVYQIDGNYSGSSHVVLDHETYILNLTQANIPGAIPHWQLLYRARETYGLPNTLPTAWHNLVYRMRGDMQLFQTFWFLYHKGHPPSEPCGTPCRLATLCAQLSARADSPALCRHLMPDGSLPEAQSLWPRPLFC
To be noted: cited from earlier work.

Another assay concerns glia activation. The conditions noted are these: dependent on glia activation; cited from earlier work.
Assay [2] concerns SARS-CoV-2. The conditions noted are these: in vitro; cited from earlier work.
Assay [3] concerns ceramide-enriched membrane domains. To be noted: in vitro; cited from earlier work.
Assay [4] relates to SARS-CoV-2. The conditions noted are these: cited from earlier work.
The next assay deals with COVID-19. To be noted: human, in vivo; cited from earlier work.

Chain of Sigma-1 receptors (S1R) (Q99720 whole entry): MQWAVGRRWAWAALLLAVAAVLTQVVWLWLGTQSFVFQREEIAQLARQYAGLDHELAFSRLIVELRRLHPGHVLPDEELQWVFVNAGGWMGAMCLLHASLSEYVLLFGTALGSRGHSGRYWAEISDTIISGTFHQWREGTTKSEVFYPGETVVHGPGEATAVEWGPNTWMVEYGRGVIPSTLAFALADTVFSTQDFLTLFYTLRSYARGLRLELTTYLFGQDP

For the compound `CCCCc1oc2ccccc2c1C(=O)c1cc(I)c(OCCN(CC)CC)c(I)c1` [Amiodarone, amiodarone], the “Association of use at baseline with risk of intubation or death (in words)” value (from here on “Association of use at baseline”) in the assay with severe COVID-19 is “effective preventive and curative treatments for reducing risk of death or intubation”.
Regarding `O=C1CCc2ccc(OCCCCN3CCN(c4cccc(Cl)c4Cl)CC3)cc2N1` [Aripiprazole, aripiprazole], the “Affinity for Sigma-1 receptors (in words)” value (“Affinity” for short) at Sigma-1 receptors (S1R) was “low or no affinity for S1R”. For the same compound, the “Association of use at baseline” value with severe COVID-19 was “effective preventive and curative treatments for reducing risk of death or intubation”. For the same compound, the “In vitro inhibition of acid sphingomyelinase (in words)” value (shortened to “In vitro inhibition”) in assay [1] is reported as “in vitro inhibit acid sphingomyelinase with varying degrees”.
As to `CN(C)CCCN1c2ccccc2Sc2ccc(Cl)cc21` [Chlorpromazine, chlorpromazine], the “Anti-inflammatory effect (in words)” value in the assay on glia activation is “anti-inflammatory effect was observed”. The “Affinity” value on Sigma-1 receptors (S1R) was “low or no affinity for S1R”. Moreover, the “Association of use at baseline” value in the assay with severe COVID-19 is “effective preventive and curative treatments for reducing risk of death or intubation”. Moreover, the “In vitro inhibition” value in assay [1] is on record as “in vitro inhibit acid sphingomyelinase with varying degrees”.
For the compound `Clc1ccc2c(c1)CCc1cccnc1C2=C1CCNCC1` [Desloratadine, desloratadine], in the assay with severe COVID-19, the “Association of use at baseline” value is “effective preventive and curative treatments for reducing risk of death or intubation”.
`CNCC[C@H](Oc1cccc2ccccc12)c1cccs1` [Duloxetine, duloxetine]: at Sigma-1 receptors (S1R), the “Affinity” value is listed as “low or no affinity for S1R”. Also, in assay [1], the “In vitro inhibition” value is on record as “in vitro inhibit acid sphingomyelinase with varying degrees”.
On to `CN(C)C(=O)C(CCN1CCC(O)(c2ccc(Cl)cc2)CC1)(c1ccccc1)c1ccccc1` [Loperamide, loperamide], for which the “Association of use at baseline” value in the assay with severe COVID-19 was “effective preventive and curative treatments for reducing risk of death or intubation”. The “In vitro inhibition” value in assay [1] is given as “in vitro inhibit acid sphingomyelinase with varying degrees”.
Regarding `Fc1ccc([C@@H]2CCNC[C@H]2COc2ccc3c(c2)OCO3)cc1` [Paroxetine, paroxetine], the “Affinity” value at Sigma-1 receptors (S1R) is given as “low or no affinity for S1R”. For the same compound, the “Inhibition of viral replication (in words)” value in the assay on SARS-CoV-2 [2] was “inhibition of viral replication was not observed”. In assay [1], the “In vitro inhibition” value is “in vitro inhibit acid sphingomyelinase with varying degrees”.
As to `CN[C@H]1CC[C@@H](c2ccc(Cl)c(Cl)c2)c2ccccc21` [Sertraline, sertraline], the “Formation of ceramide-enriched membrane domains (in words)” value (shortened to “Formation”) in assay [3] was “inhibited ASM and the formation of ceramide-enriched membrane domains”. In the assay with SARS-CoV-2 [4], the “Infection of Vero cells with SARS-CoV-2 (in words)” value (shortened to “Infection of Vero cells”) is on record as “prevented Vero cells from being infected with SARS-CoV-2”. Further, the “Affinity” value on Sigma-1 receptors (S1R) is “low or no affinity for S1R”. Also, the “In vitro inhibition” value in assay [1] was “inhibited ASM; also recorded: in vitro inhibit acid sphingomyelinase with varying degrees”.
In the case of `CC[C@H]1OC(=O)[C@H](C)[C@@H](O[C@H]2C[C@@](C)(OC)[C@@H](O)[C@H](C)O2)[C@H](C)[C@@H](O[C@@H]2O[C@H](C)C[C@H](N(C)C)[C@H]2O)[C@](C)(O)C[C@@H](C)CN(C)[C@H](C)[C@@H](O)[C@]1(C)O` [azithromycin], the “Effect on mortality in patients hospitalized with COVID-19 (in words)” value in the assay with COVID-19 is reported as “non-significant effect on mortality”.
For `CNCCCN1c2ccccc2CCc2ccccc21` [desipramine], the “Formation” value in assay [3] was “inhibited ASM and the formation of ceramide-enriched membrane domains”. In the assay with SARS-CoV-2 [4], the “Infection of Vero cells” value is reported as “prevented Vero cells from being infected with SARS-CoV-2”. In assay [1], the “In vitro inhibition” value is given as “inhibited ASM; also recorded: in vitro inhibit acid sphingomyelinase with varying degrees”.
Regarding `O=C(CCCN1CCC(O)(c2ccc(Cl)cc2)CC1)c1ccc(F)cc1` [haloperidol], the “Anti-inflammatory effect (in words)” value in the assay on glia activation was “anti-inflammatory effect was observed”.
With `CCN(CCO)CCCC(C)Nc1ccnc2cc(Cl)ccc12` (stereo not drawn) [hydroxychloroquine], the “Effect on mortality in patients hospitalized with COVID-19 (in words)” value in the assay with COVID-19 is given as “non-significant effect on mortality”.
On to `CN(C)CCCN1c2ccccc2CCc2ccccc21` [imipramine], for which the “Formation” value in assay [3] was “inhibited ASM and the formation of ceramide-enriched membrane domains”. The “Infection of Vero cells” value in the assay with SARS-CoV-2 [4] is reported as “prevented Vero cells from being infected with SARS-CoV-2”. For the same compound, in assay [1], the “In vitro inhibition” value was “inhibited ASM; also recorded: in vitro inhibit acid sphingomyelinase with varying degrees”.
Regarding `CNCCCC12CCC(c3ccccc31)c1ccccc12` [maprotiline], the “Formation” value in assay [3] was “inhibited ASM and the formation of ceramide-enriched membrane domains”. Further, the “Infection of Vero cells” value in the assay with SARS-CoV-2 [4] is listed as “prevented Vero cells from being infected with SARS-CoV-2”. The “In vitro inhibition” value in assay [1] is given as “inhibited ASM; also recorded: in vitro inhibit acid sphingomyelinase with varying degrees”.
`Cc1nc2n(c(=O)c1CCN1CCC(c3noc4cc(F)ccc34)CC1)CCCC2` [risperidone]: in the assay on glia activation, the “Anti-inflammatory effect (in words)” value was “anti-inflammatory effect was observed”.
